This is an account of results in ChEMBL document CHEMBL5104172, “Design, synthesis, and antibacterial activity of derivatives of Tryptophanyl-tRNA synthetase inhibitor indolmycin” (Eur J Med Chem, 2022).

What all share (assay type): functional
In experiment [1] the test system is Staphylococcus aureus. In words: Antibacterial activity against methicillin-resistant Staphylococcus aureus NRS384 measured by liquid dilution method.
For experiment [2], the system named is Staphylococcus aureus. In words: Antibacterial activity against Staphylococcus aureus ATCC 29213 measured by liquid dilution method.
A further experiment concerns Escherichia coli. The experiment can be described thus: Antibacterial activity against Escherichia coli ATCC 25922 measured by liquid dilution method.

Molecules are shown by their SMILES. In brackets after ≈: the same amount, converted by molar mass.

By MIC is commonly meant the lowest concentration that inhibits growth of the organism. Higher therefore signals a less susceptible organism. Turning to `CNC1=NC(=O)C(C(C)c2c[nH]c3cccc(Cl)c23)O1` (racemic), the MIC with Staphylococcus aureus [1] is 2 µg/mL (≈ 6.86 µM); with Staphylococcus aureus [2], 1 µg/mL (≈ 3.43 µM); against Escherichia coli it was 128 µg/mL (≈ 439 µM).

In the case of `CNC1=NC(=O)C(C(C)c2c[nH]c3cccc(N4CCCC4)c23)O1` (racemic), the values for the MIC against Staphylococcus aureus [1], against Staphylococcus aureus [2] and against Escherichia coli were over 128 µg/mL, 128 µg/mL (≈ 392 µM) and over 128 µg/mL, respectively.

Regarding `CNC1=NC(=O)C(C(C)c2c[nH]c3cc(F)ccc23)O1` (racemic), the minimum inhibitory concentration (MIC) turned out to be 8 µg/mL (≈ 29.1 µM) in the experiment with Staphylococcus aureus [1], 16 µg/mL (≈ 58.1 µM) against Staphylococcus aureus [2] and 8 µg/mL (≈ 29.1 µM) against Escherichia coli.

On to `CNC1=NC(=O)C(C(C)c2c[nH]c3ccc(F)cc23)O1` (racemic), for which the MIC with Staphylococcus aureus [1] is 64 µg/mL (≈ 232 µM); with Staphylococcus aureus [2], 32 µg/mL (≈ 116 µM); with Escherichia coli, 128 µg/mL (≈ 465 µM).

For the compound `CNC1=NC(=O)C(C(C)c2c[nH]c3cccc(C)c23)S1` (racemic), the MIC was over 128 µg/mL in the experiment with Staphylococcus aureus [1], 4 µg/mL (≈ 13.9 µM) against Staphylococcus aureus [2] and over 128 µg/mL against Escherichia coli.

`CNC1=NC(=O)C(C(C)c2c[nH]c3cc(C)ccc23)O1` (racemic): the MIC was 8 µg/mL (≈ 29.5 µM) against Staphylococcus aureus [1], over 128 µg/mL in the experiment on Staphylococcus aureus [2] and 16 µg/mL (≈ 59 µM) against Escherichia coli.

In the case of `CNC1=NC(=O)C(C(C)c2c[nH]c3ccc(Br)cc23)O1` (racemic), the MIC in the experiment with Staphylococcus aureus [1] was 64 µg/mL (≈ 190 µM); with Staphylococcus aureus [2], over 128 µg/mL; in the experiment on Escherichia coli it was 4 µg/mL (≈ 11.9 µM).

As for `CNC1=NC(=O)C(C(C)c2c[nH]c3c(F)cccc23)O1` (racemic), the MIC with Staphylococcus aureus [1] came out at 8 µg/mL (≈ 29.1 µM); in the experiment with Staphylococcus aureus [2], 8 µg/mL (≈ 29.1 µM); against Escherichia coli, 16 µg/mL (≈ 58.1 µM).

As for `CNC1=NC(=O)C(C(C)c2c[nH]c3cccc(Cl)c23)S1` (racemic), the figures for the minimum inhibitory concentration (MIC) in the experiment on Staphylococcus aureus [1], with Staphylococcus aureus [2] and in the experiment on Escherichia coli were over 128 µg/mL, 8 µg/mL (≈ 26 µM) and over 128 µg/mL, respectively.

For the compound `CNC1=NC(=O)C(C(C)c2c[nH]c3cccc(F)c23)O1` (racemic), the MIC with Staphylococcus aureus [1] worked out at 1 µg/mL (≈ 3.63 µM); in the experiment on Staphylococcus aureus [2], 1 µg/mL (≈ 3.63 µM); in the experiment with Escherichia coli it was 4 µg/mL (≈ 14.5 µM).

Regarding `CNC1=NC(=O)C(C(C)c2c[nH]c3cc(Br)ccc23)O1` (racemic), the MIC in the experiment with Staphylococcus aureus [1] is 16 µg/mL (≈ 47.6 µM); in the experiment with Staphylococcus aureus [2], over 128 µg/mL; in the experiment with Escherichia coli, 4 µg/mL (≈ 11.9 µM).

On to `CNC1=NC(=O)C(C(C)c2c[nH]c3cccc(OCc4ccccc4)c23)O1` (racemic), for which the MIC in the experiment with Staphylococcus aureus [1], against Staphylococcus aureus [2] and in the experiment with Escherichia coli was over 128 µg/mL each time.

As to `CC(c1c[nH]c2cccc(F)c12)C1OC(N)=NC1=O` (racemic), the results for the MIC against Staphylococcus aureus [1], with Staphylococcus aureus [2] and against Escherichia coli were over 128 µg/mL, 16 µg/mL (≈ 61.2 µM) and over 128 µg/mL, respectively.

As to `CNC1=NC(=O)C(C(C)c2c[nH]c3cccc(Br)c23)O1` (racemic), the figures for the minimal inhibitory concentration (MIC) in the experiment with Staphylococcus aureus [1], in the experiment on Staphylococcus aureus [2] and in the experiment with Escherichia coli were over 128 µg/mL, 4 µg/mL (≈ 11.9 µM) and over 128 µg/mL, respectively.

As for `CNC1=NC(=O)C(C(C)c2c[nH]c3cccc(F)c23)S1` (racemic), the figures for the MIC with Staphylococcus aureus [1], in the experiment on Staphylococcus aureus [2] and against Escherichia coli were over 128 µg/mL, 8 µg/mL (≈ 27.5 µM) and over 128 µg/mL, respectively.

Turning to `CNC1=NC(=O)C(C(C)c2c[nH]c3cccc(N4CCCCC4)c23)O1` (racemic), the results for the MIC against Staphylococcus aureus [1], against Staphylococcus aureus [2] and against Escherichia coli were over 128 µg/mL, 64 µg/mL (≈ 188 µM) and over 128 µg/mL, respectively.

In the case of `CNC1=NC(=O)C(C(C)c2c[nH]c3ccccc23)O1` (racemic), the MIC against Staphylococcus aureus [1], in the experiment on Staphylococcus aureus [2] and with Escherichia coli was 1 µg/mL (≈ 3.89 µM) each time.
